The test system of series [1] is 21MT1 tumor cells. Nature of the series: Taxol induced apoptosis and C35 exposure, annexin V/PI flow cytometry. The class given is cell-based, human. As to conditions: 0.5 uM, 24 hours. How it is done:
24 hours following treatment with 0.5 uM Taxol™, 21MT1 tumor cells were stained with annexin V-FITC, propidium iodide, and with either 100 ng anti-C35 antibody 1F2 (dark line) or isotype control (grey fill) antibody. Both antibodies were directly conjugated to Alexa-647. Histograms were gated on the cells undergoing apoptosis (annexinV positive/PI negative).
Antibodies were pre-incubated with PAB buffer (FIG. 3A), 100-fold molar excess recombinant C35 protein (FIG. 3B), or 100-fold molar excess β-galactosidase protein (FIG. 3C).

For series [2] the following is noted: nude mice; non-toxic dose at indicated schedule; cited from earlier work.

Molecules are shown by their SMILES.

As to `CC(=O)O[C@H]1C(=O)[C@@]2(C)[C@H]([C@H](OC(=O)c3ccccc3)[C@]3(O)C[C@H](OC(=O)[C@H](O)[C@@H](NC(=O)c4ccccc4)c4ccccc4)C(C)=C1C3(C)C)[C@]1(OC(C)=O)CO[C@@H]1C[C@@H]2O` [Taxol, paclitaxel], the “induction of apoptosis with exposure of C35 on the cell surface” value in series [1] is “induces apoptosis”. In series [2], the “Maximum Tolerated Dose” value is “No toxicity^2”.
